From patent publication US20190185544A1, “COMPOSITIONS AND METHODS OF MODULATING ABETA PROTEIN” (University of South Florida, priority 2016, published 2019)
Entries after “also recorded” stand apart in the source; their conditions may differ.

Experiments:
Type in all cases: cell-based, Chinese hamster
CHO/APPwt cells = experiment: Aβ production in CHO/APPwt cells, treatment alone (Aβ1-40, 42 ELISA, 82E1 WB); conditions: for Aβ production (Aβ1-40, 42): serum-free medium, 2 h (ELISA) or 16 h (WB)
Method: Chinese hamster ovary (CHO) cells overexpressing human wild-type amyloid precursor protein (APPwt) (CHO/APPwt cells) were cultured in 96-well plate at about 2×10^4/well in Dulbecco's modified Eagle's medium (DMEM) with 10% fetal bovine serum (FBS), 1 mM sodium pyruvate and 100 U/mL of penicillin/streptomycin for 18 hours.
CHO/APPwt cells were cultured in 96-well plate (about 2×10^4/well) in serum-free medium and treated with ApoE LDLR, FlagApoE LDLR (SEQ ID NO.: 1 with an N-terminal FLAG tag), BiotinApo LDLR (SEQ ID NO.: 1 with an N-terminal Biotin) and 3 lysinesApoE LDLR (3KApoE LDLR (SEQ ID NO.: 2)) at indicated doses for about 2 hours.
The conditioned media and cell lysates were prepared, and subjected to Aβ ELISA and protein assay.
CHO cells overexpressing human wild-type APP (CHO/APPwt) cells were cultured in 96-well plate at 2×10^4/well in Dulbecco's modified Eagle's medium (DMEM) with 10% fetal bovine serum (FBS), 1 mM sodium pyruvate and 100 U/mL of penicillin/streptomycin for 18 hours. […] 82E1 WB analyses as shown below the Aβ ELISA result histograms. The Aβ ELISA results are representative of three independent experiments with each condition triplicated and presented as mean±SD.
(residues 133-152, SEQ ID NO: 1)] as indicated for 2 and 16 hours (h). The conditioned media and cell lysates were analyzed by Aβ1-40, 42 ELISA (FIG. 10A), 82E1 WB analysis (FIG. 10B) and protein assay, respectively. In addition, (FIG. 10C) CHO/APPwt cells were cultured in 96-well plate (2×10^4/well) in serum-free DMEM and treated with FlagApoE-LBDP, BiotinApoE-LBDP and 3 lysineApoE-LBDP (3KApoE-LBDP) in comparing to ApoE-LBDP at indicated doses for 2 hours (h). […] (SEQ ID NO: 2); […]-[…] (SEQ ID NO: 10); Biotin-[…] (SEQ ID NO: 1 with an N-Terminal Biotin).
CHO cells engineered to express human wild-type APP (CHO/APPwt) or Swedish mutant APP (CHO/APPswe) were obtained. These cells were cultured in 96 or 24 well plates at 4×10^4 or 2×10^5 cells/well, respectively, in Dulbecco's modified Eagle's medium (DMEM) with 10% fetal bovine serum, 1 mM sodium pyruvate and 100 U/mL of penicillin/streptomycin (Invitrogen, Thermo Fisher Scientific). In addition, murine N2a cells transfected with APPwt (N2a/APPwt were obtained), SH-SY5Y cells transfected with APPswe and wild-type SH-SY5Y cells (ATCC, Manassas, Va.) were cultured as previously described^42. Primary hN2TM human neurons (Neuromics, Edina, Minn.) were cultured in hN2TM human neuron culture media and primary HCN2 human neurons (ATCC) were cultured in DMEM with 4 mM L-glutamine adjusted to contain 1.5 g/L sodium bicarbonate, 4.5 g/L glucose, fetal bovine serum (10%).
Aβ1-40, 42 and sAPPα from cell and brain homogenates were detected by Aβ1-40, 42 and sAPPα ELISA kits (IBL-America), strictly following the manufacturer's instructions^43,44.
WB analyses were performed as previously described^43,44. Briefly, 10% bicine/tris gel containing 8 M urea was used for separation of Aβ1-40, 42 species from brain homogenates or CHO cell conditioned media or lysates, followed by transfer to 0.2 μm pore-size nitrocellulose membrane (Bio-Rad, Hercules, Calif.). The membrane was boiled in PBS for 3 to 5 min before blocking to enhance sensitivity and then incubated with 82E1. For all other proteins detected by WB, 10% tris-SDS gels were used. Densitometry analysis was performed as previously described using a FluorS Multiimager with Quantity One™ software 43.

CHO/APPdE1 cells = experiment: Aβ production in CHO cells expressing APP695 lacking the N-terminal E1 region; conditions: peptides 10 μM or apoE 10 μg/mL, 4 h; compared with CHO/APPwt
Description: CHO cells were also transfected with pCMV6 APP695 or pCMV6 E1 depleted APP695, yielding cells expressing wild type APP695 (CHO/APPwt) or truncated APP695 lacking the N-terminal E1 region (CHO/APPdE1). […] Diagram indicates important domains identified in APP, including N-terminal E1 region (top panel), and APPwt and APPdE1 proteins in cell lysates and conditioned media derived from the transfected CHO cells as determined by WB using 6E10 (middle panels). […] ELISA results are representative of three independent experiments with each condition triplicated and presented as mean±s.d. of Aβs (μg/mg of total intracellular protein). Asterisk indicates P<0.05 compared with the corresponding absence of 22C11, 6H3B5 or 6KApoEp, or with corresponding CHO/APPwt cells, as determined by one-way ANOVA.
Therefore, apoE and ApoEp mediates and 6KApoEp reduces Aβ production by binding to the N-terminal E1 region of APP, but this region of APP is not required for spontaneous Aβ release in the absence of apoE.

p44/42 MAPK = p44/42 MAPK phosphorylation in CHO/APPwt cell lysates (WB); conditions: peptides 10 μM or apoE 10 μg/mL, 0 to 180 min
p38 MAPK = p38 MAPK phosphorylation in CHO/APPwt cell lysates (WB); conditions: peptides 10 μM or apoE 10 μg/mL, 0 to 180 min

| Substance | sAPPα secretion (CHO/APPwt cells) | Aβ production (Aβ1-40, 42) (CHO/APPwt cells) | Aβ production in CHO/APPdE1 cells (CHO/APPdE1 cells) | p44/42 MAPK phosphorylation (p44/42 MAPK) | p38 MAPK phosphorylation (p38 MAPK) |
| --- | --- | --- | --- | --- | --- |
| ApoE4: human recombinant apolipoprotein E4 protein (BioVision) | decreased sAPPα secretion | increased Aβ1-40, 42 production; also recorded: markedly promote amyloid β protein (Aβ) production | markedly less Aβ production compared with CHO/APPwt cells | activated both p44/42 and p38 MAPK phosphorylation | activated both p44/42 and p38 MAPK phosphorylation |
| ApoE3: human recombinant apolipoprotein E3 protein (BioVision) | decreased sAPPα secretion | markedly promote amyloid β protein (Aβ) production | markedly less Aβ production compared with CHO/APPwt cells | activated both p44/42 and p38 MAPK phosphorylation | activated both p44/42 and p38 MAPK phosphorylation |
